Source: the supplement of paper PMC10307832

How the values were obtained:
Assay in all cases: relative viability (nuclei count vs DMSO), 5 days (fraction); higher = more cells survive
[1] = system: NCI-H647
Outline: (§1)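 Relative viability was taken as the ratio of nuclei in treated wells to nuclei in vehicle wells. Lung cancer cell lines in 1536-well plates received compounds by pin tool one day after seeding, either one drug alone or a fixed anchor-drug dose plus five library-drug doses (not always all listed) in √10 steps. Nuclei were counted on 4× images after 5 days of treatment, and values are medians of duplicate plates.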

[2] = system: BEN
Outline: as §1

[3] = system: NCI-H1792
Outline: as §1

[4] = system: NCI-H1395
Outline: as §1

[5] = system: NCI-H522
Outline: as §1

[6] = system: NCI-H2009
Outline: as §1

[7] = system: SK-LU-1
Outline: as §1

[8] = system: NCI-H1355
Outline: as §1

[9] = system: NCI-H1993
Outline: as §1

[10] = system: HARA
Outline: as §1

[11] = system: SK-MES-1
Outline: as §1

[12] = system: NCI-H1734
Outline: as §1

[13] = system: NCI-H2170
Outline: as §1

[14] = system: NCI-H2342
Outline: as §1

[15] = system: LOU-NH91
Outline: as §1

[16] = system: NCI-H1437
Outline: as §1

[17] = system: NCI-H2405
Outline: as §1

[18] = system: NCI-H2087
Outline: as §1

[19] = system: NCI-H661
Outline: as §1

[20] = system: EKVX
Outline: as §1

[21] = system: HCC-827
Outline: as §1

## COc1nc(C)cnc1NS(=O)(=O)c1cccnc1-c1ccc(-c2nnco2)cc1 [Zibotentan] + CCNC(=O)c1noc(-c2cc(C(C)C)c(O)cc2O)c1-c1ccc(CN2CCOCC2)cc1 [Luminespib] (partner 0.01 µM)
[1]; first compound 0.08 µM
  relative viability: 0.244
[1]; first compound 0.253 µM
  relative viability: 0.16
[1]; first compound 0.8 µM
  relative viability: 0.185
[1]; first compound 2.53 µM
  relative viability: 0.164
[2]; first compound 0.08 µM
  relative viability: 0.401
[2]; first compound 0.253 µM
  relative viability: 0.356
[2]; first compound 0.8 µM
  relative viability: 0.395
[2]; first compound 2.53 µM
  relative viability: 0.537
[3]; first compound 0.08 µM
  relative viability: 0.417
[3]; first compound 0.253 µM
  relative viability: 0.362
[3]; first compound 0.8 µM
  relative viability: 0.469
[3]; first compound 2.53 µM
  relative viability: 0.346
[4]; first compound 0.08 µM
  relative viability: 0.725
[4]; first compound 0.253 µM
  relative viability: 0.724
[4]; first compound 0.8 µM
  relative viability: 0.649
[4]; first compound 2.53 µM
  relative viability: 0.754
[5]; first compound 0.08 µM
  relative viability: 1.26
[5]; first compound 0.253 µM
  relative viability: 1.02
[5]; first compound 0.8 µM
  relative viability: 1.13
[5]; first compound 2.53 µM
  relative viability: 1.09
[6]; first compound 0.08 µM
  relative viability: 0.959
[6]; first compound 0.253 µM
  relative viability: 1.03
[6]; first compound 0.8 µM
  relative viability: 1.08
[6]; first compound 2.53 µM
  relative viability: 1
[7]; first compound 0.08 µM
  relative viability: 0.236
[7]; first compound 0.253 µM
  relative viability: 0.171
[7]; first compound 0.8 µM
  relative viability: 0.213
[7]; first compound 2.53 µM
  relative viability: 0.194
[8]; first compound 0.08 µM
  relative viability: 0.738
[8]; first compound 0.253 µM
  relative viability: 0.719
[8]; first compound 0.8 µM
  relative viability: 0.773
[8]; first compound 2.53 µM
  relative viability: 0.75
[9]; first compound 0.08 µM
  relative viability: 0.667
[9]; first compound 0.253 µM
  relative viability: 0.978
[9]; first compound 0.8 µM
  relative viability: 0.839
[9]; first compound 2.53 µM
  relative viability: 0.949
[10]; first compound 0.08 µM
  relative viability: 0.731
[10]; first compound 0.253 µM
  relative viability: 0.705
[10]; first compound 0.8 µM
  relative viability: 0.636
[10]; first compound 2.53 µM
  relative viability: 0.836
[11]; first compound 0.08 µM
  relative viability: 1.05
[11]; first compound 0.253 µM
  relative viability: 0.788
[11]; first compound 0.8 µM
  relative viability: 0.818
[11]; first compound 2.53 µM
  relative viability: 0.83
[12]; first compound 0.08 µM
  relative viability: 0.19
[12]; first compound 0.253 µM
  relative viability: 0.164
[12]; first compound 0.8 µM
  relative viability: 0.195
[12]; first compound 2.53 µM
  relative viability: 0.262
[13]; first compound 0.08 µM
  relative viability: 0.397
[13]; first compound 0.253 µM
  relative viability: 0.721
[13]; first compound 0.8 µM
  relative viability: 0.646
[13]; first compound 2.53 µM
  relative viability: 0.691
[14]; first compound 0.08 µM
  relative viability: 0.702
[14]; first compound 0.253 µM
  relative viability: 0.617
[14]; first compound 0.8 µM
  relative viability: 0.652
[14]; first compound 2.53 µM
  relative viability: 0.738
[15]; first compound 0.08 µM
  relative viability: 0.33
[15]; first compound 0.253 µM
  relative viability: 0.315
[15]; first compound 0.8 µM
  relative viability: 0.382
[15]; first compound 2.53 µM
  relative viability: 0.364
[16]; first compound 0.08 µM
  relative viability: 1.15
[16]; first compound 0.253 µM
  relative viability: 0.967
[16]; first compound 0.8 µM
  relative viability: 1.12
[16]; first compound 2.53 µM
  relative viability: 1.15
[17]; first compound 0.08 µM
  relative viability: 0.703
[17]; first compound 0.253 µM
  relative viability: 0.541
[17]; first compound 0.8 µM
  relative viability: 0.774
[17]; first compound 2.53 µM
  relative viability: 0.8
[18]; first compound 0.08 µM
  relative viability: 0.168
[18]; first compound 0.253 µM
  relative viability: 0.171
[18]; first compound 0.8 µM
  relative viability: 0.169
[18]; first compound 2.53 µM
  relative viability: 0.124
[19]; first compound 0.08 µM
  relative viability: 0.953
[19]; first compound 0.253 µM
  relative viability: 0.836
[19]; first compound 0.8 µM
  relative viability: 0.922
[19]; first compound 2.53 µM
  relative viability: 0.922
[20]; first compound 0.08 µM
  relative viability: 0.762
[20]; first compound 0.253 µM
  relative viability: 0.88
[20]; first compound 0.8 µM
  relative viability: 0.832
[20]; first compound 2.53 µM
  relative viability: 0.877
[21]; first compound 0.08 µM
  relative viability: 0.574
[21]; first compound 0.253 µM
  relative viability: 0.501
[21]; first compound 0.8 µM
  relative viability: 0.442
[21]; first compound 2.53 µM
  relative viability: 0.774
